Data reported in patent publication US20020119146A1, “TREATMENT OF DIABETES” (priority 1994, published 2002).
Entries after “also recorded” stand apart in the source; their conditions may differ.

Assays:
[1] = system: Type I diabetic subjects; assay: Sustacal meal preceded by subcutaneous GLIP in Type I diabetics (Example 5); type: in vivo, human; conditions: 100 μg GLIP subcutaneously prior to Sustacal meal
Excerpt: Type I diabetic subjects were studied.
The results are shown in FIG. 5. indicates statistically significant differences between treatments (p<0.05).

[2] = system: normal volunteers; assay: Sustacal meal preceded by subcutaneous GLIP in normal volunteers (Example 4); type: in vivo, human
Excerpt: Results are shown in FIG. 4. *indicates statistically significant differences between treatments (p<0.05).

[3] = system: subjects with remission phase Type I diabetes; assay: Sustacal meal with intravenous GLIP infusion (Example 1); type: in vivo, human
Experimental: 7 subjects with remission phase Type I diabetes were studied after ingestion of a standardised meal of Sustacal (Upjohn) (delivering […]). Subjects continued their normal insulin treatment programme on the day prior to the test and, on the day of the test, omitted their morning insulin injection and arrived fasting at 8:00 am. […] Infusion was continued for 120 minutes. Blood levels of glucose, C-peptide, gastrin, glucagon and HPP were monitored by standard radioimmunoassay methods in samples taken before and at intervals during the study, up to 180 minutes. On another test day, subjects were given the Sustacal meal alone and the same analytes were similarly monitored.

[4] = system: Type II diabetics; conditions: cited from earlier work
[5] = system: humans and other mammals; conditions: cited from earlier work
[6] = system: subjects with remission phase Type I diabetes; assay: Sustacal meal with lower-dose GLIP infusion (Example 3); type: in vivo, human; conditions: infusion 0.75 pmol/kg/min for 120 minutes after Sustacal meal, versus saline infusion; FIG. 3
Experimental: Four subjects with remission phase Type I diabetes were studied during infusion with 0.75 pm/kg/min-GLIP for 120 minutes after a Sustacal meal.
The test was conducted as described in Example 1 and blood glucose and C-peptice levels were measured. On a further test day, the subjects were studied during saline infusion after a similar Slistacal meal.

[7] = system: Type 1 diabetic subject; assay: Subcutaneous GLIP along with insulin before Sustacal meal (Example 6)
Experimental: One Type 1 diabetic subject was given GLIP along with insulin and the effects on post-prandial glycaemia observed. The subject received 5 units of insulin and 50 μg GLIP as subcutaneous injections immediately prior to ingestion of a Sustacal meal as described in Example 1. Blood levels of GLIP were monitored by a standard radioimmunoassay method.

[8] = subcutaneous injection of 00 gg GLIP immediately before Sustacal meal

## Glucagon-like peptide 1(7-36)amide [GLIP]
[1]; morning insulin omitted, FIG. 5 Panel A
  blood glucose levels compared to control (no GLIP): lowering of blood glucose levels
[1]; FIG. 5 Panel D
  pancreatic polypeptide (HPP) levels: delayed rise in pancreatic polypeptide (HPP) levels
[1]; FIG. 5 Panels B and C
  insulin secretion over control levels: no enhancement of insulin secretion over control levels
[2]; experiment repeated with 50 Ag dose of GLIP
  delays in increase in blood levels of glucose, HPP, C-peptide and insulin: proportionally shorter
[2]; experiment repeated with 200 Ag dose of GLIP
  delays in increase in blood levels of glucose, HPP, C-peptide and insulin: longer
[2]; [8]
  increase in blood levels of C-peptide: delay in increase
  increase in blood levels of HPP: delay in increase
  increase in blood levels of glucose: delay in increase
  increase in blood levels of insulin: delay in increase
[3]; IV infusion 1.2 pm/kg/min after Sustacal meal, FIG. 1 Panel E
  gastrin response / gastrin levels: normal ga.trin response; also recorded: not significantly affected
[3]; IV infusion 1.2 pm/kg/min for 120 minutes after Sustacal meal, FIG. 1 Panel A
  blood glucose level after a meal: excellent control of blood glucose level
[3]; IV infusion 1.2 pm/kg/min, FIG. 1 Panel C
  secretion of pancreatic polypeptide (PP) after Sustacal meal: this response was absent during GLIP infusion
[4]
  effect between the peptide and oral hypoglycaemic agents: synergistic effect
[5]
  gastric emptying: delay of gastric emptying
[6]
  increase in blood glucose: increase in glucose was less than in the control experiment
  rise in C-peptide: rise in C-peptide was similar to the control experiment
[7]; 50 μg GLIP subcutaneously with 5 units insulin, radioimmunoassay, FIG. 6 Panel E
  clearance of GLIP from the blood: cleared from the blood in about two hours
[7]; 50 gg GLIP with 5 units insulin (half the usual dose) subcutaneously before Sustacal meal, one subject, FIG. 6 Panel A
  blood glucose after standard meal: ≤ 8 mM
